Reference: article PMC6615252, “The binding affinity of PTPN13’s tandem PDZ2/3 domain is allosterically modulated” (BMC Molecular and Cell Biology, 2019)
Values joined by “and” are separate entries in the source; they are usually repeats but may differ in a detail not shown here. Equal values may be shown once. “Also recorded” adds a separate entry of the source. Residues, ends and D or L forms follow the SMILES beside them.

Tests used:
[1] = target: T1, PDZ3 in PDZ2/3 tandem domain of PTPN13 (Mus musculus, UniProt Q64512); experiment: NMR titration of PDZ2/3 tandem domain, PDZ3 resonances (PDZ3 in PDZ2/3); format: binding; settings: data not shown
T1 construct: pGEX-2 T-PDZ2/3 (PTPN13 residues 1347–1580); GST (N, cleaved yes); made in house; host or cells: E. coli BL21(DE3)
T1 sequence (Q64512 1347-1580): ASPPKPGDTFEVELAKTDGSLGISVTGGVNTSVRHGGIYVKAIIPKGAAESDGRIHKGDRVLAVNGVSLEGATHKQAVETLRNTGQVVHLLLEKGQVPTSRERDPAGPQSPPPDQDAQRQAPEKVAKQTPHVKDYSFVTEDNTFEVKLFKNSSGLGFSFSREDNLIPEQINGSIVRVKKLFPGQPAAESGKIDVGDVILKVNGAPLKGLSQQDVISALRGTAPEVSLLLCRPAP
Method: (§1) We have applied multidimensional heteronuclear NMR spectroscopy in order to elucidate the binding affinities of the PDZ2 single domain and the tandem domain PDZ2/3 of PTPN13 for the chemically synthesized C-terminal dodecapeptides derived from APC and PRK2. The binding characteristics were analyzed in a titration series of the dodecamer peptides and ^15N isotopically-enriched PDZ2 and PDZ2/3 samples, respectively, and by monitoring the NMR chemical shift perturbations in a series of 2D ^1H-^15N heteronuclear single quantum coherence (HSQC) spectra with increasing ligand concentrations. It could be shown that all peptides bind to the canonical binding groove of PDZ domains (Figs. 1, 2, 3 and 4). […]
(§2) NMR spectra were acquired at 298 K on Bruker DRX 600 and AVANCE III HD 700 spectrometers. […] All data were processed with either NMRPipe and analyzed with NMR View or TopSpin (www.bruker.com). […] The interaction between PDZ2 and PDZ3 was analyzed upon titrating PDZ3 to isotopically ^15N-enriched PDZ2 at a molar ratio of 1:1 at 298 K by recording 2D ^1H-^15N-HSQC NMR spectra. […] The differences in backbone ^1H and ^15N NMR chemical shifts were monitored via 2D ^1H-^15N-HSQC NMR spectra. The weighted ^1HN and ^15N chemical shift differences were calculated according to the following equation [45, 47]: […]

[2] = target: T2, PDZ2/3 tandem domain of PTPN13 (Mus musculus, UniProt Q64512); experiment: NMR titration of PDZ2/3 tandem domain with APC peptide, chemical shift perturbations and exchange regime; format: binding
T2 construct: pGEX-2 T-PDZ2/3 (PTPN13 residues 1347–1580); GST (N, cleaved yes); made in house; host or cells: E. coli BL21(DE3)
T2 sequence (Q64512 1347-1580): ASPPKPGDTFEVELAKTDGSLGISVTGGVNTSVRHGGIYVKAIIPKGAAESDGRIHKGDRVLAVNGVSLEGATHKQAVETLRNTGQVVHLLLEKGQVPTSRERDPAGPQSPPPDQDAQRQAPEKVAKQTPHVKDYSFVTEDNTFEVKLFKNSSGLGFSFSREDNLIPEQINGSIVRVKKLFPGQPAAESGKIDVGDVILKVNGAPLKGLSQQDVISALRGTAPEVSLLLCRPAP
Method: (§3) We have applied multidimensional heteronuclear NMR spectroscopy in order to elucidate the binding affinities of the PDZ2 single domain and the tandem domain PDZ2/3 of PTPN13 for the chemically synthesized C-terminal dodecapeptides derived from APC and PRK2. The binding characteristics were analyzed in a titration series of the dodecamer peptides and ^15N isotopically-enriched PDZ2 and PDZ2/3 samples, respectively, and by monitoring the NMR chemical shift perturbations in a series of 2D ^1H-^15N heteronuclear single quantum coherence (HSQC) spectra with increasing ligand concentrations. It could be shown that all peptides bind to the canonical binding groove of PDZ domains (Figs. 1, 2, 3 and 4).
(§4) NMR spectra were acquired at 298 K on Bruker DRX 600 and AVANCE III HD 700 spectrometers. Typically, NMR samples contained 0.1–0.5 mM uniformly ^13C and/or ^15N-enriched protein in PBS buffer at pH 7.4 including 10% D2O [42–44]. All data were processed with either NMRPipe and analyzed with NMR View or TopSpin (www.bruker.com). The backbone assignments were obtained from the BioMagResBank accession numbers 15,199 (PDZ2/3) and 5131 (PDZ2). The interaction between PDZ2 and PDZ3 was analyzed upon titrating PDZ3 to isotopically ^15N-enriched PDZ2 at a molar ratio of 1:1 at 298 K by recording 2D ^1H-^15N-HSQC NMR spectra. […] The differences in backbone ^1H and ^15N NMR chemical shifts were monitored via 2D ^1H-^15N-HSQC NMR spectra. The weighted ^1HN and ^15N chemical shift differences were calculated according to the following equation [45, 47]: […]
Averaged dissociation constants for the different complexes were calculated from least-squares fitting of the NMR chemical shift perturbations observed for several amino acids as a function of ligand concentration. NMR chemical shift perturbation data were analysed with the ORIGIN software package (www.originlab.com) as previously published. The error for KD values was calculated from the individual fit of several significant chemical shift perturbations found for the amide resonances located in and/or next to the canonical PDZ binding cleft. […]

[3] = target: T3, PDZ2 in PDZ2/3 tandem domain of PTPN13 (Mus musculus, UniProt Q64512); experiment: NMR titration of PDZ2/3 tandem domain, PDZ2 resonances (PDZ2 in PDZ2/3); format: binding; settings: final stoichiometric ratio APC:PDZ2/3 30:1
T3 construct: pGEX-2 T-PDZ2/3 (PTPN13 residues 1347–1580); GST (N, cleaved yes); made in house; host or cells: E. coli BL21(DE3)
T3 sequence (Q64512 1347-1580): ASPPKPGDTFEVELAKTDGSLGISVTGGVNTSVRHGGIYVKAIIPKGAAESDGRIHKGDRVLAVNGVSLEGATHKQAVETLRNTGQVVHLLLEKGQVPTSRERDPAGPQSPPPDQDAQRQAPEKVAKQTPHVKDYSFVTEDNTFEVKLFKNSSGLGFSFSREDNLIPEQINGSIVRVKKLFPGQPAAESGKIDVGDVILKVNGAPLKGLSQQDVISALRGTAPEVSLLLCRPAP
Method: as §1, §2

[4] = target: PDZ3 domain of PTPN13; settings: single PDZ3 domain; NMR titration, 298 K, pH 7.4, PBS, DTT added; ref [12]; read-out: dissociation constant KD, PDZ3; cited from earlier work
Description: The observed differences for APC binding to PDZ2 versus tandem PDZ2/3 are not large yet still considerable.

[5] = test system: single PDZ2 domain of PTPN13; settings: previous study; class I (APC) and III (RIL) ligands; ref [21]; cited from earlier work
Description: Based on the results from the NMR chemical shift perturbation analysis and HADDOCK molecular docking calculations we conclude, that an allosteric effect modulates the APC-binding characteristics of PDZ2 from PTPN13 (Fig. 7). Although peptides rather than the corresponding full-length proteins have been used here, numerous studies have shown before that the last four to six carboxy-terminal amino acids are essential for ligand binding to PDZ domains.

[6] = target: T4, PDZ2 domain of PTPN13 (Mus musculus, UniProt Q64512); experiment: NMR titration (2D 1H-15N-HSQC chemical shift perturbation) of 15N-enriched single PDZ2 domain with C-terminal dodecapeptides; format: binding; settings: for NMR chemical shift perturbations of PDZ2 on peptide binding: 2D 1H-15N-HSQC, 298 K, pH 7.4
T4 construct: pGEX-2 T-PDZ2 (PTPN13 residues 1347–1450); GST (N, cleaved yes); made in house; host or cells: E. coli BL21(DE3)
T4 sequence (Q64512 1347-1450): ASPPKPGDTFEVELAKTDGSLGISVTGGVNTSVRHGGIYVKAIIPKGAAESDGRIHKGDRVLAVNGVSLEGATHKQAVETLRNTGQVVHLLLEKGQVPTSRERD
Method: as §3
Bacterial expression plasmids pGEX-2 T-PDZ2 (PTPN13 residues 1347–1450), pGEX-2 T-PDZ3 (PTPN13 residues 1474–1580), and pGEX-2 T-PDZ2/3 (PTPN13 residues 1347–1580) were constructed by sub-cloning of PCR-generated PTPN13 cDNA fragments in-frame into appropriate pGEX-2 T vectors.
as §4, with “The backbone assignments were obtained from the BioMagResBank accession numbers 15,199 (PDZ2/3) and 5131 (PDZ2).” left out
Averaged dissociation constants for the different complexes were calculated from least-squares fitting of the NMR chemical shift perturbations observed for several amino acids as a function of ligand concentration. NMR chemical shift perturbation data were analysed with the ORIGIN software package (www.originlab.com) as previously published. […]

[7] = target: T5, PRK2 peptide (Homo sapiens); experiment: NMR titration
T5 chain: MFRDFDYIADWC

[8] = target: T6, APC peptide (Homo sapiens); experiment: NMR titration
T6 chain: KRHSGSYLVTSV

Molecule | saturation of PDZ3 at end of titration [1] | NMR chemical shift perturbations of PDZ2/3 tandem on titration ([2]; 2D 1H-15N-HSQC, 298 K, pH 7.4) | NMR exchange regime of binding to tandem PDZ2/3 ([2]; 298 K, pH 7.4) | chemical shift differences between single PDZ2-APC complex and PDZ2 in PDZ2/3-APC complex ([2]; APC peptide at molar ratio 1:30, single PDZ2 vs PDZ2 in PDZ2/3) | saturation of PDZ2 resonances at end of titration [3] | Kd [4] | binding to single PDZ2 domain [5] | NMR chemical shift perturbations of PDZ2 on peptide binding [6] | peptide-induced dimerisation of PDZ2 ([6]; comparison of free and APC-bound NMR spectra of individual PDZ2) | Kd [7] | Kd [8]
CC(=O)N[C@@H](CCCCN)C(=O)N[C@@H](CCCNC(=N)N)C(=O)N[C@@H](Cc1c[nH]cn1)C(=O)N[C@@H](CO)C(=O)NCC(=O)N[C@@H](CO)C(=O)N[C@@H](Cc1ccc(O)cc1)C(=O)N[C@@H](CC(C)C)C(=O)N[C@H](C(=O)N[C@H](C(=O)N[C@@H](CO)C(=O)N[C@H](C(=O)O)C(C)C)[C@@H](C)O)C(C)C [APC] | PDZ3 was not fully saturated at the end of the titration | NMR chemical shift perturbations were observed for G12, L19, T31, G63, H94, L95, L97 of PDZ2 and K152 as well as S231 of PDZ3 in the tandem domain | fast exchange | Major NMR chemical shift perturbations were observed on the back of the PDZ2 domain, i.e. opposite to the canonical PDZ binding cleft, mainly for EF (H94, L95, L97) and for EA (L19) | no further chemical shift changes were observed for amide resonances originating from the PDZ2 domain | ~721 µM and 721 µM | able to bind | leads to NMR chemical shift differences observed along intra-domain signal pathways as previously predicted | exclude an APC-induced dimerisation of PDZ2 | – | –
CC[C@H](C)[C@H](NC(=O)[C@H](Cc1ccc(O)cc1)NC(=O)[C@H](CC(=O)O)NC(=O)[C@H](Cc1ccccc1)NC(=O)[C@H](CC(=O)O)NC(=O)[C@H](CCCNC(=N)N)NC(=O)[C@H](Cc1ccccc1)NC(=O)[C@H](CCSC)NC(C)=O)C(=O)N[C@@H](C)C(=O)N[C@@H](CC(=O)O)C(=O)N[C@@H](Cc1c[nH]c2ccccc12)C(=O)N[C@@H](CS)C(=O)O [PRK2] (Ac-MFRDFDYIADWC-OH; C-terminus assumed) | – | – | – | – | – | 318 ± 47 µM | – | NMR chemical shift differences were observed for the canonical ligand binding groove of PDZ2 including G23, S24, which are also involved in peptide recognition, and S28, and G31; also recorded: Additional NMR chemical shift perturbations were observed for the β-strands EA and EF of PDZ2, located opposite to its canonical peptide binding groove | – | – | –
PTPN13 PDZ2 (protein) DIFEVELAKNDNSLGISVTGGVNTSVRHGGIYVKAVIPQGAAESDGRIHKGDRVLAVNGVSLEGATHKQAVETLRNTGQVVHLLLEKGQSP | – | – | – | – | – | – | – | – | – | 661 µM | 286 µM
